The results in this text go back to ChEMBL document CHEMBL1155023, “C-geranylated chalcones from the stems of Angelica keiskei with superoxide-scavenging activity” (J Nat Prod, 2008).

A short description of this test: Superoxide-scavenging activity assessed as inhibition of formation of WST1 formazan.
Regarding `C=C(C)C(O)CCC(C)(O)[C@H]1Oc2ccc(C(=O)/C=C/c3ccc(O)cc3)c(O)c2[C@@H]1O` (relative stereo) [XANTHOKEISMINS C], the IC50 stood at 1.1 µM.

Turning to `O=C1O[C@H]([C@@H](O)CO)C(O)=C1O` [ASCORBIC ACID], the IC50 is greater than 40 µM.

For `CC(C)=CCC/C(C)=C/CC/C(C)=C/CO` [FARNESOL], the IC50 was greater than 40 µM.

For `O=C(/C=C/c1ccc(O)cc1)c1ccc(O)cc1O` [ISOLIQUIRITIGENIN], the concentration for half-maximal inhibition (IC50) came to 15 µM.

On to `Oc1ccc(/C=C/c2cc(O)cc(O)c2)cc1` [RESVERATROL], for which the IC50 was 5.3 µM.

For the compound `C=C(C)C(O)CC/C(C)=C/Cc1c(O)ccc(C(=O)/C=C/c2ccc(O)cc2)c1O` (centres undefined) [XANTHOANGELOL B], the half-inhibitory concentration (IC50) was found to be 0.92 µM.

`CC(C)=CCC/C(C)=C/Cc1c(O)ccc(C(=O)/C=C/c2ccc(O)cc2)c1O` [XANTHOANGELOL]: the IC50 is greater than 40 µM.

For the compound `C/C(=C\Cc1c(O)ccc(C(=O)/C=C/c2ccc(O)cc2)c1O)C/C=C/C(C)(C)O` [XANTHOKEISMINS A], the IC50 came to 0.51 µM.

Consider `CC(C)(O)/C=C/CC(C)(O)[C@H]1Oc2ccc(C(=O)/C=C/c3ccc(O)cc3)c(O)c2[C@@H]1O` (some centres undefined) [XANTHOKEISMINS B], for which the IC50 was 0.69 µM.
